{
  "source": "patent US10865216B2",
  "about": "“Tricyclic Gyrase inhibitors” (MERCK SHARP & DOHME CORP., priority 2012, dated 2020)",
  "data": [
    {"tested_on": "E. coli ATCC 25922", "assay": "MIC, E. coli ATCC 25922", "assay_type": "cell-based", "conditions": "E. coli; Alamar Blue read after overnight incubation at 35° C.", "units": {"MIC Ec": "µg/mL"}, "values": [
      {"smiles": "CNc1cc(F)cc2c1[nH]c1nc(Oc3cnc(C4CCC4)nc3)nc(N3CC(N)C4(CC4)C3)c12", "note": "(centres unmarked) [Compound 4.287]", "MIC Ec": "≤0.5"},
      {"smiles": "CNc1cc(F)cc2c1[nH]c1nc(Oc3cnc(C(N)=O)nc3)nc(N3C[C@H](N)C4(CC4)C3)c12", "note": "[Compound 4.375]", "MIC Ec": 4},
      {"smiles": "CNc1cc(F)cc2c1[nH]c1nc(Oc3cnc(C(C)C)nc3)nc(N3CCC4(CC4N)C3)c12", "note": "(centres unmarked) [Compound 4.235]", "MIC Ec": "≤0.5"},
      {"smiles": "CNc1cc(F)cc2c1[nH]c1nc(Oc3cnc(C)nc3)nc(N3CC4CCNC4(C)C3)c12", "note": "(centres unmarked) [Compound 4.116]", "MIC Ec": "≤0.5"},
      {"smiles": "CNc1cccc2c1[nH]c1nc(Sc3cnc4cccnc4c3)nc(N3CCC4(CC4N)C3)c12", "note": "(centres unmarked) [Compound 1.25]", "MIC Ec": 4},
      {"smiles": "CNc1cc(F)cc2c1[nH]c1nc(Oc3cnc(NC4CC4)nc3)nc(N3CC[C@@H](N)C3)c12", "note": "[Compound 4.222]", "MIC Ec": "≤0.5"},
      {"smiles": "CNc1cc(F)c(F)c2c1[nH]c1nc(Oc3ncc(C)cn3)nc(N3CC(N)C3)c12", "note": "[Compound 5.06]", "MIC Ec": "≤0.5"},
      {"smiles": "CNc1cc(F)cc2c1[nH]c1nc(Oc3cnc(C#N)c(C)c3)nc(N3CC4CC(N)C4C3)c12", "note": "(centres unmarked) [Compound 4.325]", "MIC Ec": "≤0.5"},
      {"smiles": "CNc1cc(F)cc2c1[nH]c1nc(Oc3cnc4cccnc4c3)nc(N3CC4CC4(N)C3)c12", "note": "(centres unmarked) [Compound 4.036]", "MIC Ec": "≤0.5"},
      {"smiles": "CNc1cc(F)cc2c1[nH]c1nc(Oc3cnc4ccoc4c3)nc(N3CC4C(N)C4C3)c12", "note": "(centres unmarked) [Compound 4.291]", "MIC Ec": "≤0.5"},
      {"smiles": "CNc1cc(F)cc2c1[nH]c1nc(Oc3cnc(SC)nc3)nc(N3CC4CCNC4C3)c12", "note": "(centres unmarked) [Compound 4.198]", "MIC Ec": "≤0.5"},
      {"smiles": "CNc1cc(F)cc2c1[nH]c1nc(Oc3cnc(SC)nc3)nc(N3CCC4(C[C@H]4N)C3)c12", "note": "(some centres unmarked) [Compound 4.203]", "MIC Ec": "≤0.5"},
      {"smiles": "CCc1ncc(Oc2nc(N3CC4CC4(CN)C3)c3c(n2)[nH]c2c(NC)cc(F)cc23)cn1", "note": "(centres unmarked) [Compound 4.261]", "MIC Ec": 1},
      {"smiles": "CNc1cc(F)cc2c1[nH]c1nc(Oc3cncc(F)c3)nc(N3CC(N)C4(CC4)C3)c12", "note": "(centres unmarked) [Compound 4.057]", "MIC Ec": "≤0.5"},
      {"smiles": "CNc1cc(F)cc2c1[nH]c1nc(Oc3cnc(N)nc3)nc(N3CCC4(CC4N)C3)c12", "note": "(centres unmarked) [Compound 4.173]", "MIC Ec": 1},
      {"smiles": "CNc1cc(F)cc2c1[nH]c1nc(Oc3ccc4sc(N)nc4c3)nc(N3CC4CCC(N)C4C3)c12", "note": "(centres unmarked) [Compound 4.335]", "MIC Ec": 4},
      {"smiles": "CNc1cc(F)cc2c1[nH]c1nc(Oc3cncnc3)nc(N3CC4C(N)C4C3)c12", "note": "(centres unmarked) [Compound 4.010]", "MIC Ec": "≤0.5"},
      {"smiles": "CNc1cc(F)cc2c1[nH]c1nc(Oc3cncc(C(N)=O)c3)nc(N3CC4CC(N)C4C3)c12", "note": "(centres unmarked) [Compound 4.236]", "MIC Ec": "≤0.5"},
      {"smiles": "Nc1cccc2c1[nH]c1nc(Sc3cnc4cccnc4c3)nc(N3CC4C(N)C4C3)c12", "note": "(centres unmarked) [Compound 1.09]", "MIC Ec": ">64"},
      {"smiles": "COc1cccc2c1[nH]c1nc(Oc3cncnc3)nc(N3CC4C(N)C4C3)c12", "note": "(centres unmarked) [Compound 2.13]", "MIC Ec": 64}
    ]},
    {"tested_on": "E. coli ATCC 25922", "assay": "MIC, E. coli ATCC 25922", "assay_type": "cell-based", "conditions": "Escherichia coli, ATCC25922, E. coli; Alamar Blue read after overnight incubation at 35° C.; read-out: MIC Ec", "units": {"MIC": "µg/mL"}, "values": [
      {"smiles": "CNc1cccc2c1[nH]c1nc(Oc3cncc(F)c3)cc(N3CCC4(CNC4)C3)c12", "note": "[Compound 3.66]", "MIC": "> 32"},
      {"smiles": "CNc1cccc2c1[nH]c1nc(Oc3cncc(F)c3)cc(N3CC4C(N)C4C3)c12", "note": "(centres unmarked) [Compound 3.33]", "MIC": 1},
      {"smiles": "CNc1cccc2c1[nH]c1nc(Sc3cnc4nccnc4c3)nc(N3CC[C@H](N)C3)c12", "note": "[Compound 1.15]", "MIC": 2},
      {"smiles": "CNc1cccc2c1[nH]c1nc(Oc3cnc(N)nc3)nc(Oc3cnc(N)nc3)c12", "note": "[Compound 8.4]", "MIC": "> 64"},
      {"smiles": "CNc1cccc2c1[nH]c1nc(Oc3ccc4nccnc4c3)cc(N3CC4C(N)C4C3)c12", "note": "(centres unmarked) [Compound 3.31]", "MIC": 8},
      {"smiles": "CNc1cccc2c1[nH]c1nc(Sc3cnc4ccc[n+]([O-])c4c3)nc(N3CC4CC3CN4)c12", "note": "(centres unmarked) [Compound 1.57]", "MIC": "> 32"},
      {"smiles": "CNc1cccc2c1[nH]c1nc(Oc3cnc4cccnc4c3)cc(N3CC4C(N)C4C3)c12", "note": "(centres unmarked) [Compound 3.34]", "MIC": "≤ 0.5"},
      {"smiles": "CNc1cc(F)cc2c1[nH]c1nc(Sc3cnc4cccnc4c3)nc(N3CC4C(N)C4C3)c12", "note": "(centres unmarked) [Compound 1.51]", "MIC": "≤ 0.5"}
    ]},
    {"tested_on": "S. aureus ATCC 13709", "assay": "MIC, S. aureus ATCC 13709", "assay_type": "cell-based", "conditions": "S. aureus; Alamar Blue read after overnight incubation at 35° C.", "units": {"MIC Sa": "µg/mL"}, "values": [
      {"smiles": "CNc1cc(F)cc2c1[nH]c1nc(Oc3cnc(C4CCC4)nc3)nc(N3CC(N)C4(CC4)C3)c12", "note": "(centres unmarked) [Compound 4.287]", "MIC Sa": "≤0.5"},
      {"smiles": "CNc1cc(F)cc2c1[nH]c1nc(Oc3cnc(C(N)=O)nc3)nc(N3C[C@H](N)C4(CC4)C3)c12", "note": "[Compound 4.375]", "MIC Sa": "≤0.5"},
      {"smiles": "CNc1cc(F)cc2c1[nH]c1nc(Oc3cnc(C(C)C)nc3)nc(N3CCC4(CC4N)C3)c12", "note": "(centres unmarked) [Compound 4.235]", "MIC Sa": "≤0.5"},
      {"smiles": "CNc1cc(F)cc2c1[nH]c1nc(Oc3cnc(C)nc3)nc(N3CC4CCNC4(C)C3)c12", "note": "(centres unmarked) [Compound 4.116]", "MIC Sa": "≤0.5"},
      {"smiles": "CNc1cc(F)cc2c1[nH]c1nc(Oc3cnc(NC4CC4)nc3)nc(N3CC[C@@H](N)C3)c12", "note": "[Compound 4.222]", "MIC Sa": "≤0.5"},
      {"smiles": "CNc1cc(F)c(F)c2c1[nH]c1nc(Oc3ncc(C)cn3)nc(N3CC(N)C3)c12", "note": "[Compound 5.06]", "MIC Sa": "≤0.5"},
      {"smiles": "CNc1cc(F)cc2c1[nH]c1nc(Oc3cnc(C#N)c(C)c3)nc(N3CC4CC(N)C4C3)c12", "note": "(centres unmarked) [Compound 4.325]", "MIC Sa": "≤0.5"},
      {"smiles": "CNc1cc(F)cc2c1[nH]c1nc(Oc3cnc4cccnc4c3)nc(N3CC4CC4(N)C3)c12", "note": "(centres unmarked) [Compound 4.036]", "MIC Sa": "≤0.5"},
      {"smiles": "CNc1cc(F)cc2c1[nH]c1nc(Oc3cnc4ccoc4c3)nc(N3CC4C(N)C4C3)c12", "note": "(centres unmarked) [Compound 4.291]", "MIC Sa": "≤0.5"},
      {"smiles": "CNc1cc(F)cc2c1[nH]c1nc(Oc3cnc(SC)nc3)nc(N3CC4CCNC4C3)c12", "note": "(centres unmarked) [Compound 4.198]", "MIC Sa": "≤0.5"},
      {"smiles": "CNc1cc(F)cc2c1[nH]c1nc(Oc3cnc(SC)nc3)nc(N3CCC4(C[C@H]4N)C3)c12", "note": "(some centres unmarked) [Compound 4.203]", "MIC Sa": "≤0.5"},
      {"smiles": "CCc1ncc(Oc2nc(N3CC4CC4(CN)C3)c3c(n2)[nH]c2c(NC)cc(F)cc23)cn1", "note": "(centres unmarked) [Compound 4.261]", "MIC Sa": "≤0.5"},
      {"smiles": "CNc1cc(F)cc2c1[nH]c1nc(Oc3cncc(F)c3)nc(N3CC(N)C4(CC4)C3)c12", "note": "(centres unmarked) [Compound 4.057]", "MIC Sa": "≤0.5"},
      {"smiles": "CNc1cc(F)cc2c1[nH]c1nc(Oc3cnc(N)nc3)nc(N3CCC4(CC4N)C3)c12", "note": "(centres unmarked) [Compound 4.173]", "MIC Sa": "≤0.5"},
      {"smiles": "CNc1cc(F)cc2c1[nH]c1nc(Oc3ccc4sc(N)nc4c3)nc(N3CC4CCC(N)C4C3)c12", "note": "(centres unmarked) [Compound 4.335]", "MIC Sa": "≤0.5"},
      {"smiles": "CNc1cc(F)cc2c1[nH]c1nc(Oc3cncnc3)nc(N3CC4C(N)C4C3)c12", "note": "(centres unmarked) [Compound 4.010]", "MIC Sa": "≤0.5"},
      {"smiles": "CNc1cc(F)cc2c1[nH]c1nc(Oc3cncc(C(N)=O)c3)nc(N3CC4CC(N)C4C3)c12", "note": "(centres unmarked) [Compound 4.236]", "MIC Sa": "≤0.5"},
      {"smiles": "Nc1cccc2c1[nH]c1nc(Sc3cnc4cccnc4c3)nc(N3CC4C(N)C4C3)c12", "note": "(centres unmarked) [Compound 1.09]", "MIC Sa": 64},
      {"smiles": "COc1cccc2c1[nH]c1nc(Oc3cncnc3)nc(N3CC4C(N)C4C3)c12", "note": "(centres unmarked) [Compound 2.13]", "MIC Sa": 2}
    ]},
    {"tested_on": "S. aureus ATCC 13709", "assay": "MIC, S. aureus ATCC 13709", "assay_type": "cell-based", "conditions": "Staphylococcus aureus, ATCC13709, S. aureus; Alamar Blue read after overnight incubation at 35° C.; read-out: MIC Sa", "units": {"MIC": "µg/mL"}, "values": [
      {"smiles": "CNc1cccc2c1[nH]c1nc(Oc3cncc(F)c3)cc(N3CCC4(CNC4)C3)c12", "note": "[Compound 3.66]", "MIC": 8},
      {"smiles": "CNc1cccc2c1[nH]c1nc(Oc3cncc(F)c3)cc(N3CC4C(N)C4C3)c12", "note": "(centres unmarked) [Compound 3.33]", "MIC": "≤ 0.5"},
      {"smiles": "CNc1cccc2c1[nH]c1nc(Sc3cnc4nccnc4c3)nc(N3CC[C@H](N)C3)c12", "note": "[Compound 1.15]", "MIC": 1},
      {"smiles": "CNc1cccc2c1[nH]c1nc(Oc3cnc(N)nc3)nc(Oc3cnc(N)nc3)c12", "note": "[Compound 8.4]", "MIC": 8},
      {"smiles": "CNc1cccc2c1[nH]c1nc(Oc3ccc4nccnc4c3)cc(N3CC4C(N)C4C3)c12", "note": "(centres unmarked) [Compound 3.31]", "MIC": 2},
      {"smiles": "CNc1cccc2c1[nH]c1nc(Sc3cnc4ccc[n+]([O-])c4c3)nc(N3CC4CC3CN4)c12", "note": "(centres unmarked) [Compound 1.57]", "MIC": "> 32"},
      {"smiles": "CNc1cccc2c1[nH]c1nc(Sc3cnc4cccnc4c3)nc(N3CCC4(CC4N)C3)c12", "note": "(centres unmarked) [Compound 1.25]", "MIC": "≤ 0.5"},
      {"smiles": "CNc1cccc2c1[nH]c1nc(Oc3cnc4cccnc4c3)cc(N3CC4C(N)C4C3)c12", "note": "(centres unmarked) [Compound 3.34]", "MIC": "≤ 0.5"},
      {"smiles": "CNc1cc(F)cc2c1[nH]c1nc(Sc3cnc4cccnc4c3)nc(N3CC4C(N)C4C3)c12", "note": "(centres unmarked) [Compound 1.51]", "MIC": "≤ 0.5"}
    ]}
  ]
}
